The values that follow come from patent US5430023A, “Tripeptide antithrombotic agents” (Eli Lilly and Company, priority 1993, dated 1995).

Square brackets hold non-standard residues; d marks the D form. Peptide text beside a SMILES is read from it. * marks the point of attachment. dNMePhg = CN[C@@H](C(=O)O)c1ccccc1; dHpg = N[C@@H](C(=O)O)c1ccc(O)cc1; dChg = N[C@@H](C(=O)O)C1CCCCC1; dPhg = N[C@@H](C(=O)O)c1ccccc1; Boc = CC(C)(C)OC(=O)* A value given as a limit tells only on which side of the number the result lay.

Holding throughout (assay type): biochemical
Assay [1] has as its target T1, bovine thrombin (Bos taurus, UniProt P00735).
T1 construct: 25 μl of bovine thrombin solution (0.21 mg/ml of thrombostat powder); purchased thrombostat powder
Kind of assay: Inhibition of thrombin amidase activity (chromogenic substrate), bovine thrombin. The settings on record: apparent equilibrium constant inhibitor-thrombin, mean over a range of concentrations. As for the experimental part: The data in the table were obtained in an assay in which thrombin hydrolyzes the chromogenic substrate, N-benzoyl-D-phenylalanyl-L-valyl-L-arginyl-p-nitroanilide.
The assay was carried out in 50 μl buffer (0.03M Tris, 0.15M NaCl, pH 7.4) with 25 μl of bovine thrombin solution (0.21 mg/ml of thrombostat powder in 0.06M Tris, 0.3M NaCl, pH 7.4) and 150 μl of an aqueous solution of the chromogenic substrate at a concentration of 0.25 mg/ml. Solutions of test compound (25 μl) at various concentrations were added. […] Standard curves were constructed by plotting free thrombin concentration against hydrolysis rate. […] The amount of free inhibitor in each assay was calculated by subtracting the number of moles of bound thrombin from the number of moles of added inhibitor (test compound).
Kass was calculated for a range of concentrations of compounds and the mean value is reported in units of liter per mole.

The subject of assay [2] is plasma coagulation (thromboplastin). Nature of the assay: Plasma coagulation assay: prothrombin time. How it is done: The numerical values in the table are the concentrations of the test compounds (ng/ml) required to prolong coagulation by 2-fold in the three tests. The thrombin time evaluation was carried out in plasma and separately determined in a buffer system at pH 7.5.
(§1) The data presented in Table 2 were obtained using a CoaScreener instrument from Tecan, Inc. in the assay protocols listed below.
50 μl thromboplastin (Dade)

For assay [3], the system named is plasma coagulation (Actin, CaCl2). Nature of the assay: Plasma coagulation assay: APTT (activated partial thromboplastin time). How it is done: (§2) The anticoagulant activity of the compounds of the invention has been determined in standard tests. The following Table 2 presents the data obtained with representative compounds of the invention in tests used to determine prothrombin time, thrombin time and activated partial thromboplastin time (APTT). The numerical values in the table are the concentrations of the test compounds (ng/ml) required to prolong coagulation by 2-fold in the three tests. The thrombin time evaluation was carried out in plasma and separately determined in a buffer system at pH 7.5.
as §1

The target in assay [4] is T1, bovine thrombin. Nature of the assay: Plasma coagulation assay: thrombin time. As for the experimental part:
as §2, §1
50 μl bovine thrombin (2 NIH

Assay [5] deals with T1, bovine thrombin. Kind of assay: Thrombin time in buffer (fibrinogen instead of plasma). To be noted: Buffer (pH 7.5). As for the experimental part:
as §2, §1
In the Thrombin Time determined in pH 7.4 buffer fibrinogen was used instead of plasma.

For `CC(=O)O.CC(=O)O.CC(C)(C)OC(=O)N[C@@H](C(=O)N1CCC[C@H]1C(=O)N[C@H](C=O)CCCNC(=N)N)c1ccc(O)cc1` [Boc-D-(4-hydroxy)phenylglycyl, N-Boc-D-(4-hydroxyphenylglycyl)-Pro-Arg-H diacetate] (Boc-[dHpg]-Pro-Arg-aldehyde), at bovine thrombin [1], the “Thrombin Amidase Kass × 10^6” value is reported as 115 × 10^6 1/mole. Moreover, the “Prothrombin Time: concentration required to prolong coagulation by 2fold” value (from here on “Prothrombin Time … by 2fold”) in assay [2] was 1636 ng/mL. Moreover, in assay [3], the “APTT: concentration required to prolong coagulation by 2fold” value (“APTT: concentration required … by 2fold” below) is 1091 ng/mL. The “Thrombin Time: concentration required to prolong coagulation by 2fold” value on bovine thrombin [4] was found to be 182 ng/mL.
As for `N=C(N)NCCC[C@@H](C=O)NC(=O)[C@@H]1CCCN1C(=O)[C@H]1CC2CCCCC2CN1.O=S(=O)(O)O` (stereo partly drawn) [D-1,2,3,4,6,7,8-Perhydroisoquinolin-3-carbonyl-L-prolyl-L-arginal (sulfate)], the “Thrombin Amidase Kass × 10^6” value on bovine thrombin [1] is listed as 25 × 10^6 1/mole.
Consider “N^α -ethylcarbamate-1-amino-1-cyclohexane-carbonyl-L-prolyl-L-arginine Aldehyde (Hydrochloride)”, for which the “Thrombin Amidase Kass × 10^6” value on bovine thrombin [1] is given as 1.5 × 10^6 1/mole.
Same read-out and setting: next, `N=C(N)NCCC[C@@H](C=O)NC(=O)[C@@H]1CCCN1C(=O)[C@@H]1NCCc2ccccc21.O=S(=O)(O)O` [D-1,2,3,4-Tetrahydroisoquinolin-1-carbonyl-L-Prolyl-L-Arginine Aldehyde Sulfate]: 113 × 10^6 1/mole.
Regarding `CO[C@@H](C(=O)N1CCC[C@H]1C(=O)N[C@H](C=O)CCCNC(=N)N)c1ccccc1` [(R)-α-Methoxyphenylacetyl], the “Thrombin Amidase Kass × 10^6” value on bovine thrombin [1] is 4 × 10^6 1/mole. Further, in assay [3], the “APTT: concentration required … by 2fold” value is over 909 ng/mL. The “Thrombin Time: concentration required to prolong coagulation by 2fold” value was 139 ng/mL on bovine thrombin [4] and 173 ng/mL on bovine thrombin [5].
For `CC(C)(C)OC(=O)NC(C(=O)N1CCCC1C(=O)NC(C=O)CCCN=C(N)N)c1cccs1` [Boc-D-2-thienylglycyl], at bovine thrombin [1], the “Thrombin Amidase Kass × 10^6” value was 14 × 10^6 1/mole.
Turning to `Cl.N=C(N)NCCC[C@@H](C=O)NC(=O)[C@@H]1CCCN1C(=O)[C@H]1Cc2ccccc2C(=O)N1` [D-1,2,3,4-tetrahydroisoquinolin-1-keto-3-carbonyl-L-prolyl-L-arginine aldehyde (hydrochloride)], the “Thrombin Amidase Kass × 10^6” value on bovine thrombin [1] is listed as 6 × 10^6 1/mole.
Consider `COc1ccc([C@@H](NC(C)=O)C(=O)N2CCC[C@H]2C(=O)N[C@H](C=O)CCCNC(=N)N)cc1` [Acetyl-D-(4-methoxy)phenylglycyl], for which the “Thrombin Amidase Kass × 10^6” value on bovine thrombin [1] was 15 × 10^6 1/mole. The “Prothrombin Time … by 2fold” value in assay [2] is 900 ng/mL. For the same compound, the “APTT: concentration required … by 2fold” value in assay [3] came to 2600 ng/mL. In addition, the “Thrombin Time: concentration required to prolong coagulation by 2fold” value on bovine thrombin [4] came out at 460 ng/mL.
For the compound `CC(C)(C)OC(=O)N[C@@H](C(=O)N1CCC[C@H]1C(=O)N[C@H](C=O)CCCNC(=N)N)C1CCCCC1` [Boc-D-cyclohexylglycyl] (Boc-[dChg]-Pro-Arg-aldehyde), on bovine thrombin [1], the “Thrombin Amidase Kass × 10^6” value is given as 120 × 10^6 1/mole. In addition, the “Prothrombin Time … by 2fold” value in assay [2] was 522 ng/mL. For the same compound, in assay [3], the “APTT: concentration required … by 2fold” value came out at 748 ng/mL. Moreover, the “Thrombin Time: concentration required to prolong coagulation by 2fold” value at bovine thrombin [4] stood at 79 ng/mL; at bovine thrombin [5] it was 60 ng/mL.
For `N=C(N)NCCC[C@@H](C=O)NC(=O)[C@@H]1CCCN1C(=O)[C@H](N)c1ccccc1` [D-Phenylglycyl] (H-[dPhg]-Pro-Arg-aldehyde), the “Thrombin Amidase Kass × 10^6” value on bovine thrombin [1] is on record as 75 × 10^6 1/mole. On bovine thrombin [4], the “Thrombin Time: concentration required to prolong coagulation by 2fold” value was found to be 91 ng/mL.
For “N^α -acetyl-1-aminocyclohexane-1-carbonyl-L-prolyl-L-arginine Aldehyde (Hydrochloride)”, at bovine thrombin [1], the “Thrombin Amidase Kass × 10^6” value was 0.2 × 10^6 1/mole.
`CC[C@@H](C(=O)N1CCC[C@H]1C(=O)N[C@H](C=O)CCCNC(=N)N)c1ccccc1` [(R)-α-Ethylphenylacetyl]: the “Thrombin Amidase Kass × 10^6” value on bovine thrombin [1] is 7 × 10^6 1/mole. The “Thrombin Time: concentration required to prolong coagulation by 2fold” value on bovine thrombin [4] is 115 ng/mL.
Turning to `COc1ccc([C@@H](NC(=O)OC(C)(C)C)C(=O)N2CCC[C@H]2C(=O)N[C@H](C=O)CCCNC(=N)N)cc1` [Boc-D-(4-methoxy)phenylglycyl], the “Thrombin Amidase Kass × 10^6” value at bovine thrombin [1] is 75 × 10^6 1/mole. Further, the “APTT: concentration required … by 2fold” value in assay [3] was 640 ng/mL. Also, at bovine thrombin [4], the “Thrombin Time: concentration required to prolong coagulation by 2fold” value was determined as 80 ng/mL.
Regarding `CC(C)(C)OC(=O)N[C@@H](C(=O)N1CCC[C@H]1C(=O)N[C@H](C=O)CCCNC(=N)N)c1ccccc1.CC(C)(C)OC(=O)N[C@@H](C(=O)N1CCC[C@H]1C(=O)N[C@H](C=O)CCCNC(=N)N)c1ccccc1.O=S(=O)(O)O` [Boc-D-phenylglycyl (sulfate salt), N-Boc-D-Phenylglycyl-L-Prolyl-L-Arginine aldehyde (Boc-D-Phg-Pro-Arg-H) hemisulfate] (Boc-[dPhg]-Pro-Arg-aldehyde), at bovine thrombin [1], the “Thrombin Amidase Kass × 10^6” value is on record as 107 × 10^6 1/mole.
In the case of `CC(C)(C)OC(=O)NC(Cc1ccccc1)C(=O)N1CCCC1C(=O)NC(C=O)CCCN=C(N)N` [Boc-D-phenylalanyl, reference compound], on bovine thrombin [1], the “Thrombin Amidase Kass × 10^6” value is on record as 21 × 10^6 1/mole.
Take `CC(C)(C)OC(=O)NC(C(=O)N1CCCC1C(=O)NC(C=O)CCCN=C(N)N)c1ccc(F)cc1` [Boc-D-Phg(4-Fluoro)]: the “Thrombin Amidase Kass × 10^6” value at bovine thrombin [1] was 44 × 10^6 1/mole.
As to `CN[C@@H](C(=O)N1CCC[C@H]1C(=O)N[C@H](C=O)CCCNC(=N)N)c1ccccc1` [N^α -Methyl-D-phenylglycyl (sulfate), N-methyl-D-phenylglycyl-L-prolyl-L-arginine aldehyde] (H-[dNMePhg]-Pro-Arg-aldehyde), on bovine thrombin [1], the “Thrombin Amidase Kass × 10^6” value is recorded as 80 × 10^6 1/mole. For the same compound, the “Prothrombin Time … by 2fold” value in assay [2] is 899 ng/mL. In addition, in assay [3], the “APTT: concentration required … by 2fold” value is over 909 ng/mL. Further, the results for the “Thrombin Time: concentration required to prolong coagulation by 2fold” value on bovine thrombin [4] and on bovine thrombin [5] were 92 ng/mL and 67 ng/mL, respectively.
On to `CC(=O)O.CC(=O)O.CC(C)(C)OC(=O)N[C@@H](C(=O)N1CCC[C@H]1C(=O)N[C@H](C=O)CCCNC(=N)N)c1ccc2ccccc2c1` [Boc-D-2-naphthylglycyl, N-Boc-D-2-naphthylglycyl-Pro-Arg-H diacetate], for which, on bovine thrombin [1], the “Thrombin Amidase Kass × 10^6” value was 22 × 10^6 1/mole. In addition, the “Prothrombin Time … by 2fold” value in assay [2] was 1200 ng/mL. Besides, the “APTT: concentration required … by 2fold” value in assay [3] was 1200 ng/mL. Also, the “Thrombin Time: concentration required to prolong coagulation by 2fold” value was found to be 230 ng/mL at bovine thrombin [4] and 142 ng/mL on bovine thrombin [5].
For `COc1ccc2cc([C@@H](NC(=O)OC(C)(C)C)C(=O)N3CCC[C@H]3C(=O)N[C@H](C=O)CCCNC(=N)N)ccc2c1` [Boc-D-(6-methoxy)-2-naphthylglycyl], the “Thrombin Amidase Kass × 10^6” value at bovine thrombin [1] was 6 × 10^6 1/mole. Moreover, the “Prothrombin Time … by 2fold” value in assay [2] was determined as 35489 ng/mL. The “APTT: concentration required … by 2fold” value in assay [3] stood at 2239 ng/mL. Besides, the “Thrombin Time: concentration required to prolong coagulation by 2fold” value at bovine thrombin [4] was determined as 460 ng/mL; on bovine thrombin [5], 466 ng/mL.
